The values that follow come from patent US20230365559A1, “NOVEL AMINOPYRIDINES AND THEIR USE IN TREATING CANCER” (priority 2020, published 2023).

In assay [1] the test system is UT-SCC-54C cells. The assay is described as follows: Radiosensitisation of UT-SCC-54C HNSCC cells, regrowth (sulforhodamine B) assay, oxic (Table 16). The class given is cell-based, human. As to conditions: for IC50: Homo sapiens, read-out: IC50; for S50: compound in combination with 3 Gy of radiation, 50% inhibition of regrowth fraction, UT-SCC-54C; for S50 / radiosensitisation / differential growth inhibition of UT-SCC-54C cells: oxic; for radiosensitisation / differential growth inhibition of UT-SCC-54C cells: 0 or 3 Gy, regrowth assay.

A further assay has as its target human DNA-PK (Homo sapiens, UniProt P78527). The assay is described as follows: Inhibition of DNA-PKcs kinase activity, HotSpot assay (Reaction Biology), [γ-33P]-ATP phosphorylation of peptide substrate. The format is biochemical. The conditions noted are these: 10 μM ATP, 10 μg/ml DNA; mean of two replicates; Table 12; read-out: Inhibition of kinase activity (as IC50) DNA-PK (converted).

The next assay addresses human PI3Kα (p110α/p85α) (Homo sapiens, UniProt P42336). The assay is described as follows: Inhibition of PI3Kα kinase activity, ADP-Glo Assay (Reaction Biology). As to conditions: 10 μM ATP; mean of two replicates; Table 12; read-out: Inhibition of kinase activity (as IC50) PICK. The format is biochemical. (In general: ADP-Glo turns the ADP formed in a reaction into a luminescent signal.)

Another assay has as its target human mTOR (Homo sapiens, UniProt P42345). The assay is described as follows: Inhibition of mTOR kinase activity, HotSpot assay, phosphorylation of 4EPB1. The conditions noted are these: Inhibition of kinase activity (as IC50) mTOR (nM), 10 μM ATP; mean of two replicates; Table 12.
Assay [2] deals with UT-SCC-54C cells. Put plainly: Radiosensitisation of UT-SCC-54C HNSCC cells, clonogenic survival, oxic and anoxic (Table 18). The class given is cell-based, human. The conditions noted are these: for Plating efficiency drug/no drug: no radiation; for sensitisation of UT-SCC-54C cells selectively under anoxia: oxic vs anoxic, clonogenic survival, FIGS. 9 and 10.

As a reminder, the IC50 is the concentration at which inhibition is half-maximal.

Values joined by “and” are separate entries in the source; they are usually repeats but may differ in a detail not shown here. Equal values may be shown once.

Chain of human PI3Kα (p110α/p85α) (P42336 whole entry): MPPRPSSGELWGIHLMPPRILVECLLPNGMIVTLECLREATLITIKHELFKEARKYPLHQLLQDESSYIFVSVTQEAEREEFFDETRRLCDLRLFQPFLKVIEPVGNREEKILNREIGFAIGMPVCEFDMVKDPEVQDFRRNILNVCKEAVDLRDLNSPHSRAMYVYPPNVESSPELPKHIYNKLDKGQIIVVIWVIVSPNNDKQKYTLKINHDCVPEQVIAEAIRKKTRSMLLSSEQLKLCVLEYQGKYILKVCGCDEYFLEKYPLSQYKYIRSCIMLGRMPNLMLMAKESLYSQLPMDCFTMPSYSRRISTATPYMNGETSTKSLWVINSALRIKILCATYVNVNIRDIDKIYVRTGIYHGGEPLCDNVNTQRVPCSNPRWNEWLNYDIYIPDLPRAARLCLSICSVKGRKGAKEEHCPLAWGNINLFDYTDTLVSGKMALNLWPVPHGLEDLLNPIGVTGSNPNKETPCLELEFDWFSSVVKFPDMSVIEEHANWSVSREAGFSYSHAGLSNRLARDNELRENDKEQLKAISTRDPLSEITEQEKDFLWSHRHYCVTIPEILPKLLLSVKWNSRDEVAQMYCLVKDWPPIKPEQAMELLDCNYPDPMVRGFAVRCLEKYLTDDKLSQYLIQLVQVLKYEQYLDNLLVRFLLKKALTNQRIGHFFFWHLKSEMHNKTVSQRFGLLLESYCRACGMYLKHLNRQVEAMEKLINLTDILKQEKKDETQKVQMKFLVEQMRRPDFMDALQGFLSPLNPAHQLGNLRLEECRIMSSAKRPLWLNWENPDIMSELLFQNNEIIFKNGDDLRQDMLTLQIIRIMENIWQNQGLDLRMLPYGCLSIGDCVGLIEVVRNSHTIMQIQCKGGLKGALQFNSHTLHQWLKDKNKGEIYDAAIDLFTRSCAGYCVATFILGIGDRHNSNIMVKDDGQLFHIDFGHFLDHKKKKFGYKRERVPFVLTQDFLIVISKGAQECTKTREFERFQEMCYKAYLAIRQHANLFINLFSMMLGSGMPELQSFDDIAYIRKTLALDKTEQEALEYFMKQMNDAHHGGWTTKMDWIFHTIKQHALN
Chain of human PI3Kα (p110α/p85α) (P27986 whole entry partner): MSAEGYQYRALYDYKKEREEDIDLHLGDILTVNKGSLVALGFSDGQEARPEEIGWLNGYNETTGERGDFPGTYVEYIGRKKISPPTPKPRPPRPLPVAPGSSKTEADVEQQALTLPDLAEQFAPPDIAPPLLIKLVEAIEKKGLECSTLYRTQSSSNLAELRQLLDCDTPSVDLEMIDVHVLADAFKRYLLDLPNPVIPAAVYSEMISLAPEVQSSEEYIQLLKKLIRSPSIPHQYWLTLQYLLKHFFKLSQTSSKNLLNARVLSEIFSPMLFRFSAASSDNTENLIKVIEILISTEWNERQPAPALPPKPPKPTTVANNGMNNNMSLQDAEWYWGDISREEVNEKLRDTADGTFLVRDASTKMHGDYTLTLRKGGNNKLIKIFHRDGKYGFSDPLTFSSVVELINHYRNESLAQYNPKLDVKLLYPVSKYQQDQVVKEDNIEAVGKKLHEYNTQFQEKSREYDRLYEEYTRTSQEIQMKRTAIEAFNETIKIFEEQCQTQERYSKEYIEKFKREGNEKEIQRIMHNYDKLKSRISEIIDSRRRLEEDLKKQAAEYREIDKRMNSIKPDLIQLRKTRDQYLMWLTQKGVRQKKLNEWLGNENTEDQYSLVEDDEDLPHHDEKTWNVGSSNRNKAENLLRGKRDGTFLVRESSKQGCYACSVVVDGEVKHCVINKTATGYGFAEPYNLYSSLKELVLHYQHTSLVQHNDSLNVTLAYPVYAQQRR

Take `Cn1c(=O)n(C2CCCC2)c2cc(Nc3ccc4ncsc4c3)ncc21` [Compound 70, 6-(Benzo[d]thiazol-6-ylamino)-1-cyclopentyl-3-methyl-1,3-dihydro-2H-imidazo[4,5-c]pyridin-2-one]: in the assay on UT-SCC-54C cells [1], the IC50 is > 10 µM and the “S50” value came to 2.62 µM.

Consider `Cc1ccncc1Nc1cc2c(cn1)n(C)c(=O)n2C1CCCC1` [Compound 78, 1-Cyclopentyl-3-methyl-6-((4-methylpyridin-3-yl)amino)-1,3-dihydro-2H-imidazo[4,5-c]pyridin-2-one], for which, in the assay with UT-SCC-54C cells [1], the 50% inhibitory concentration (IC50) is > 10 µM and the “S50” value is 4.09 µM.

In the case of `COCCn1c(=O)n(C)c2cnc(Nc3ccc(Cl)cc3C)cc21` [Compound 105, 6-((4-Chloro-2-methylphenyl)amino)-1-(2-methoxyethyl)-3-methyl-1,3-dihydro-2H-imidazo[4,5-c]pyridin-2-one], the results for the 50% inhibitory concentration (IC50) on human DNA-PK, at human PI3Kα (p110α/p85α) and against human mTOR were 0.0121 µM, 3.26 µM and 71400 nM, respectively.

Take `Cc1cc(Cl)ccc1Nc1cc2c(cn1)n(C)c(=O)n2C1CCOCC1` [Compound 122, 6-((4-Chloro-2-methylphenyl)amino)-3-methyl-1-(tetrahydro-2H-pyran-4-yl)-1,3-dihydro-2H-imidazo[4,5-c]pyridin-2-one]: the IC50 was 2.53 µM and 5.53 µM on human PI3Kα (p110α/p85α); > 10 µM in the assay with UT-SCC-54C cells [1]; 46600 nM and 56100 nM against human mTOR. Besides, the “S50” value in the assay on UT-SCC-54C cells [1] was found to be 0.38 µM.

As for `Cc1cc(OCc2ccccc2)ccc1Nc1cc2c(cn1)n(C)c(=O)n2C1CCOCC1` [Compound 124, 6-((4-(Benzyloxy)-2-methylphenyl)amino)-3-methyl-1-(tetrahydro-2H-pyran-4-yl)-1,3-dihydro-2H-imidazo[4,5-c]pyridin-2-one], the half-inhibitory concentration (IC50) is 0.422 µM at human DNA-PK and 5.45 µM at human PI3Kα (p110α/p85α).

Take `Cc1cc(Cl)ccc1N(C(=O)OCc1ccccc1)c1cc2c(cn1)n(C)c(=O)n2C1CCOCC1` [Compound 134, Benzyl (4-Chloro-2-methylphenyl)(3-methyl-2-oxo-1-(tetrahydro-2H-pyran-4-yl)-2,3-dihydro-1H-imidazo[4,5-c]pyridin-6-yl)carbamate]: the IC50 at human DNA-PK and at human PI3Kα (p110α/p85α) was > 10 µM each time.

Regarding `COc1ccc(N(C(=O)OCc2ccccc2)c2cc3c(cn2)n(C)c(=O)n3C2CCN(C(=O)OC(C)(C)C)CC2)c(C)c1` [Compound 154, tert-Butyl 4-(6-(((Benzyloxy)carbonyl)(4-methoxy-2-methylphenyl)amino)-3-methyl-2-oxo-2,3-dihydro-1H-imidazo[4,5-c]pyridin-1-yl)piperidine-1-carboxylate], in the assay on UT-SCC-54C cells [1], the half-maximal inhibitory concentration (IC50) is > 10 µM and the “S50” value came to 2.06 µM.

In the case of `COc1ccc(-n2c(=O)n(C)c3cnc(Nc4ccc(OC)cc4C)cc32)cc1` [Compound 195, 6-((4-Methoxy-2-methylphenyl)amino)-1-(4-methoxyphenyl)-3-methyl-1,3-dihydro-2H-imidazo[4,5-c]pyridin-2-one], the “D1 (radiation dose for 1% surviving fraction)” value stood at 1.53 Gy in the assay with UT-SCC-54C cells [2] (20% O2, compound conc 0.33 μM); 2.75 Gy in the assay with UT-SCC-54C cells [2] (20% O2, compound conc 1 μM); 3.90 Gy in the assay with UT-SCC-54C cells [2] (20% O2, compound conc 3 μM). Besides, the “D10 (radiation dose for 10% surviving fraction)” value worked out at 4.67 Gy in the assay with UT-SCC-54C cells [2] (20% O2, compound conc 0.33 μM); 2.60 Gy with UT-SCC-54C cells [2] (20% O2, compound conc 1 μM); 1.83 Gy in the assay on UT-SCC-54C cells [2] (20% O2, compound conc 3 μM). In addition, the “radiosensitisation, clonogenic survival endpoint” value with UT-SCC-54C cells [2] (UT-SCC-54C, FIG. 8 and Table 18) is “concentration-dependent increases in radiosensitisation”.

As for `COc1ccc(-n2c(=O)n(C)c3cnc(Nc4ccc(Cl)cc4C)cc32)cc1` [Compound 196, 6-((4-Chloro-2-methylphenyl)amino)-1-(4-methoxyphenyl)-3-methyl-1,3-dihydro-2H-imidazo[4,5-c]pyridin-2-one], the results for the IC50 at human DNA-PK, on human PI3Kα (p110α/p85α) and with UT-SCC-54C cells [1] were 0.00027 µM, 0.237 µM and > 10 µM, respectively. Besides, the “S50” value in the assay on UT-SCC-54C cells [1] stood at 0.68 µM.

Turning to `COc1ccc(-n2c(=O)n(C)c3cnc(Nc4ccc(S(C)(=O)=O)cc4C)cc32)cc1` [Compound 198, 1-(4-Methoxyphenyl)-3-methyl-6-((2-methyl-4-(methylsulfonyl)phenyl)amino)-1,3-dihydro-2H-imidazo[4,5-c]pyridin-2-one], the IC50 on human DNA-PK was 0.023 µM; on human PI3Kα (p110α/p85α), 1.8 µM; in the assay with UT-SCC-54C cells [1] it was > 10 µM. In addition, the “S50” value in the assay with UT-SCC-54C cells [1] amounted to 0.17 µM.

With `COc1ccc(-n2c(=O)n(C)c3cnc(Nc4ccc(OCc5ccccc5)cc4C)cc32)cc1` [Compound 199, 6-((4-(Benzyloxy)-2-methylphenyl)amino)-1-(4-methoxyphenyl)-3-methyl-1,3-dihydro-2H-imidazo[4,5-c]pyridin-2-one], on human DNA-PK, the IC50 was 0.055 µM.

For `Cc1cc(Cl)ccc1Nc1cc2c(cn1)n(C)c(=O)n2-c1ccc(C(C)(C)C#N)cc1` [Compound 212, 2-(4-(6-((4-Chloro-2-methylphenyl)amino)-3-methyl-2-oxo-2,3-dihydro-1H-imidazo[4,5-c]pyridin-1-yl)phenyl)-2-methylpropanenitrile], the figures for the half-maximal inhibitory concentration (IC50) on human DNA-PK, at human PI3Kα (p110α/p85α) and in the assay on UT-SCC-54C cells [1] were < 0.00051 µM, 0.803 µM and > 10 µM, respectively. In addition, in the assay with UT-SCC-54C cells [1], the “S50” value was determined as 0.51 µM.

In the case of `Cn1c(=O)n(-c2ccc(C(C)(C)C#N)cc2)c2cc(Nc3ccc4nccnc4c3)ncc21` [Compound 214, 2-Methyl-2-(4-(3-methyl-2-oxo-6-(quinoxalin-6-ylamino)-2,3-dihydro-1H-imidazo[4,5-c]pyridin-1-yl)phenyl)propanenitrile], at human DNA-PK, the IC50 is 0.043 µM.

Turning to `Cc1cc(OC(C)c2cnc([N+](=O)[O-])n2C)ccc1Nc1cc2c(cn1)n(C)c(=O)n2C1CCOCC1` (stereo not shown) [Compound 238, 3-Methyl-6-((2-methyl-4-(1-(1-methyl-2-nitro-1H-imidazol-5-yl)ethoxy)phenyl)amino)-1-(tetrahydro-2H-pyran-4-yl)-1,3-dihydro-2H-imidazo[4,5-c]pyridin-2-one], in the assay on UT-SCC-54C cells [1], the 50% inhibitory concentration (IC50) was > 10 µM, the “S50” value was >10 µM and the “radiosensitisation / differential growth inhibition of UT-SCC-54C cells” value is given as “did not display any differential growth inhibition”. In the assay on UT-SCC-54C cells [2] (0% O2, compound conc 1 μM), the “D1 (radiation dose for 1% surviving fraction)” value stood at 15.0 Gy, the “D10 (radiation dose for 10% surviving fraction)” value stood at 8.46 Gy, the “SER1 (sensitiser enhancement ratio at 1% surviving fraction)” value stood at 1.44 and the “SER10 (sensitiser enhancement ratio at 10% surviving fraction)” value is reported as 1.65. Also, in the assay on UT-SCC-54C cells [2] (0% O2, compound conc 1 μM), the “Plating efficiency drug/no drug” value amounted to 1.02. In the assay with UT-SCC-54C cells [2], the “sensitisation of UT-SCC-54C cells selectively under anoxia” value is reported as “provide sensitisation of UT-SCC-54C cells selectively under anoxia”.

For the molecule `Cc1cc(OCc2ncc([N+](=O)[O-])n2C)ccc1Nc1cc2c(cn1)n(C)c(=O)n2C1CCOCC1` [Compound 240, 3-Methyl-6-((2-methyl-4-((1-methyl-5-nitro-1H-imidazol-2-yl)methoxy)phenyl)amino)-1-(tetrahydro-2H-pyran-4-yl)-1,3-dihydro-2H-imidazo[4,5-c]pyridin-2-one], in the assay on UT-SCC-54C cells [1], the concentration for half-maximal inhibition (IC50) was > 10 µM, the “S50” value is >10 µM and the “radiosensitisation / differential growth inhibition of UT-SCC-54C cells” value was “did not display any differential growth inhibition”.

Take `COc1ccc(-n2c(=O)n(C)c3cnc(Nc4ccc(OCc5cnc([N+](=O)[O-])n5C)cc4C)cc32)cc1` [Compound 246, 1-(4-Methoxyphenyl)-3-methyl-6-((2-methyl-4-((1-methyl-2-nitro-1H-imidazol-5-yl)methoxy)phenyl)amino)-1,3-dihydro-2H-imidazo[4,5-c]pyridin-2-one]: the IC50 on human DNA-PK was 0.116 µM. In addition, the IC50 on human PI3Kα (p110α/p85α) is 1.28 µM. In the assay with UT-SCC-54C cells [1], the IC50 is > 10 µM, the “S50” value was 6.08 µM and the “radiosensitisation / differential growth inhibition of UT-SCC-54C cells” value is on record as “did not display any differential growth inhibition”.

As for `COc1ccc(N(C(=O)OC(C)c2cnc([N+](=O)[O-])n2C)c2cc3c(cn2)n(C)c(=O)n3C2CCOCC2)c(C)c1` (stereo not shown) [Compound 250, 1-(1-Methyl-2-nitro-1H-imidazol-5-yl)ethyl (4-methoxy-2-methylphenyl)(3-methyl-2-oxo-1-(tetrahydro-2H-pyran-4-yl)-2,3-dihydro-1H-imidazo[4,5-c]pyridin-6-yl)carbamate], in the assay on UT-SCC-54C cells [1], the IC50 is > 10 µM, the “S50” value was >10 µM and the “radiosensitisation / differential growth inhibition of UT-SCC-54C cells” value is given as “did not display any differential growth inhibition”. Besides, in the assay on UT-SCC-54C cells [2] (0% O2, compound conc 1 μM), the “D1 (radiation dose for 1% surviving fraction)” value is listed as 10.83 Gy, the “D10 (radiation dose for 10% surviving fraction)” value is recorded as 5.78 Gy, the “SER1 (sensitiser enhancement ratio at 1% surviving fraction)” value was 1.87 and the “SER10 (sensitiser enhancement ratio at 10% surviving fraction)” value worked out at 2.09. Besides, in the assay with UT-SCC-54C cells [2] (0% O2, compound conc 1 μM), the “Plating efficiency drug/no drug” value is 0.98. In the assay with UT-SCC-54C cells [2], the “sensitisation of UT-SCC-54C cells selectively under anoxia” value is recorded as “provide sensitisation of UT-SCC-54C cells selectively under anoxia”.

Turning to `COc1ccc(-n2c(=O)n(C)c3cnc(N(C(=O)OCc4cnc([N+](=O)[O-])n4C)c4ccc(OC)cc4C)cc32)cc1` [Compound 259, (1-Methyl-2-nitro-1H-imidazol-5-yl)methyl (4-methoxy-2-methylphenyl)(1-(4-methoxyphenyl)-3-methyl-2-oxo-2,3-dihydro-1H-imidazo[4,5-c]pyridin-6-yl)carbamate], in the assay with UT-SCC-54C cells [1], the half-maximal inhibitory concentration (IC50) was > 10 µM, the “S50” value was >10 µM and the “radiosensitisation / differential growth inhibition of UT-SCC-54C cells” value was “did not display any differential growth inhibition”.
